Assay results: ChEMBL document CHEMBL1201862, “PubChem BioAssay data set” (2004)
Calls of active or inactive are those of the source.

Assays:
[1] = biological target: FAD-linked sulfhydryl oxidase ALR (Homo sapiens, UniProt P55789); test: ALR-catalysed DTT oxidation blockers – biochemical, H2O2 detection, luminescence, cherry-pick, dose response (AID 493248)
[2] = biological target: T1, Cytochrome P450 1A2 (Homo sapiens, UniProt P05177);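 also: PubChem cytochrome P450 panel assay, CYP1A2 panel member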
T1 sequence (P05177 whole entry): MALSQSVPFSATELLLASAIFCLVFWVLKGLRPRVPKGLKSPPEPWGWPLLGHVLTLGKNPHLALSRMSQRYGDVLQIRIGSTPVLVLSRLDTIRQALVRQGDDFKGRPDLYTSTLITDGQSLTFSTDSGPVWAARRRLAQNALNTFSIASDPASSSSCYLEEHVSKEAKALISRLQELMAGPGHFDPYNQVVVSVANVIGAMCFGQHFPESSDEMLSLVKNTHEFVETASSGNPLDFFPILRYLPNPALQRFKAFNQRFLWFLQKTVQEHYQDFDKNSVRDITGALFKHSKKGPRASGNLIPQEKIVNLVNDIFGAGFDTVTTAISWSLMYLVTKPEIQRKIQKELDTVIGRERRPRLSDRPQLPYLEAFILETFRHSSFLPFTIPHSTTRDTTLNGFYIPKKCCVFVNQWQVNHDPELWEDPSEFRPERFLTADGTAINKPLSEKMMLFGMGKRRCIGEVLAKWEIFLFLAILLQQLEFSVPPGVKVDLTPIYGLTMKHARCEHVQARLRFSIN

[3] = microbe, parasite or virus in culture; format: functional; details: Mycobacterium tuberculosis
[4] = NIH-3T3 fibroblast cytotoxicity, dose response, cytotoxicity control, cell-based, fluorescence, Alamar Blue, secondary assay (AID 2327); format: functional;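 also: NIH-3T3 mouse fibroblasts cultured with fluconazole at 8 µg/mL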
[5] = system: Streptococcus; test: GAS UMAA2166 growth inhibition – luminescence, BacTiterGlo, counter-screen for streptokinase expression inhibitor project, dose response (AID 1915); format: functional, organism-based;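 also: potency for reduction of bacterial viability or growth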
[6] = system: Streptococcus sp. 'group A'; test: Streptococcus pyogenes SK(-)GAS viability under kanamycin – luminescence, BacTiterGlo, confirmation, counter-screen for streptokinase expression inhibitor project, dose response (AID 1900); format: functional, organism-based
[7] = fluconazole-exposed Candida albicans growth modulators – fluorescence, retest, confirmation (AID 2467); format: functional, cell-based
[8] = NIH3T3 cell viability loss – ATP luminescence, mouse fibroblasts, counter-screen, dose response (AID 2010); format: functional, cell-based;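 also: cells exposed to compound for about 90 hours before reading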
[9] = Trypanosoma cruzi growth suppression in host cells – NIH3T3 host cells, beta-gal luminescence, confirmation (AID 2044); format: functional, cell-based;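 also: intracellular parasites grown in NIH/3T3 mouse fibroblasts as host cells; luminescent beta-galactosidase reporter signal from transgenic T. cruzi replicating inside host cells; inhibitors lower the luminescence signal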
[10] = system: INS1; test: INS-1E survival protection against cytokine death – cell-based, luminescence, retest, dose response (AID 449756); format: functional; details: Rattus norvegicus;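 also: cell death triggered by IL-1 beta plus TNF-alpha plus IFN-gamma mixture; protective hits raise ATP signal compared with cytokine alone wells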
[11] = Luminescence Cell-Based Dose Response HTS to Identify Activators of Luciferase Translation or Activity in H4 […] Cells. [Related pubchem assays: 1829 (Project Summary), 1814 (Primary HTS)]; format: functional
[12] = system: H4; test: Luminescence Cell-Based Dose Response HTS to Identify Activators of 5'UTR Stem-Loop Driven Prion Protein mRNA Translation in H4 Neuroglioblastoma Cells. [Related pubchem assays: 1829 (Project Summary), 1814 (Primary HTS)]; format: functional; details: Homo sapiens
[13] = system: H9c2; test: cells; format: functional, cell-based; details: Rattus norvegicus, H9c2, Myocardium;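 also: confirmatory concentration-response retest of ultra-high-throughput screening hits for modulation of myocardial damage; cell death induced by hydrogen peroxide oxidative stress; compound pretreatment for 60 min then peroxide exposure for 2 h; potency is for protecting the cells against peroxide damage rather than for killing them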
[14] = Luminescence Cell-Based Dose Confirmation HTS to Identify Activators of 5'UTR Stem-Loop Driven Alpha-Synuclein mRNA Translation in H4 Neuroglioblastoma Cells. [Related pubchem assays: 1829 (Project Summary), 1814 (Primary HTS)]; format: functional
[15] = biological target: Paired box protein Pax-8 (Homo sapiens, UniProt Q06710); test: PAX8 transcriptional activity inhibition in RMG-I – RMG-I cells, luciferase, cherry-pick, dose response (AID 687027); format: functional, cell-based;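 also: luciferase reporter driven by Pax8 target thyroperoxidase promoter measured by SteadyGlo luminescence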
[16] = OVCAR8 cell viability loss – plate reader, dry powder samples, PAX8 project, dose response (AID 743197); format: functional, cell-based; details: OVCAR-8
[17] = P. falciparum Dd2 growth inhibitors, dose response, SYBR Green, cherry-picked samples (AID 1159567); format: functional, cell-based

Paired box protein Pax-8, sequence (Q06710 whole entry): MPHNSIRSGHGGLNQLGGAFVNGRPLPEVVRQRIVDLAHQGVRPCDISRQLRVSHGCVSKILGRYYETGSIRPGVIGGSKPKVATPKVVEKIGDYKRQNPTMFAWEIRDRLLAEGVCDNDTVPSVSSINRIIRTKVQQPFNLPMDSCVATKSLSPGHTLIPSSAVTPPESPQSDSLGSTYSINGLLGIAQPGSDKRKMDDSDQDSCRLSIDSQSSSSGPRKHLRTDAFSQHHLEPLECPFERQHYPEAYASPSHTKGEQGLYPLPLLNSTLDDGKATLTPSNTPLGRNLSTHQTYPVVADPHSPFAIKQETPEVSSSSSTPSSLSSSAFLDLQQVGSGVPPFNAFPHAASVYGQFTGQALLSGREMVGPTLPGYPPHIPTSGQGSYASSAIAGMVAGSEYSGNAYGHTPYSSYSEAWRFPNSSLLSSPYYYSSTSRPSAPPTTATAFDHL
FAD-linked sulfhydryl oxidase ALR, sequence (P55789 whole entry): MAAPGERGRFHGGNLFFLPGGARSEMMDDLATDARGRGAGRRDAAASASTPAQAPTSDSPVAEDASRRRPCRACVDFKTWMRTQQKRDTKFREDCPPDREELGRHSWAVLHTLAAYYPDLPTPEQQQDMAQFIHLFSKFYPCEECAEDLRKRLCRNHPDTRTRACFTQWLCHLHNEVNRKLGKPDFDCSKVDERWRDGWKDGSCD

**Q.** For `Cc1ccc2nc(-c3cccc(S(=O)(=O)N(C)C)c3)cn2c1`, which AC50 [1] is on record?
**A.** 0.045 µM (active)

**Q.** For `Cc1cc(C(=O)N[C@H](c2ccccc2)[C@@]2(C)C[C@@H]2[C@@H](C)C(=O)Nc2ccc3ccccc3c2)n(C)n1`, which AC50 [2] is on record?
**A.** 20 µM (inconclusive)

**Q.** And the CC50 [3]?
**A.** > 40 µM (active)

**Q.** Which CC50 [3] does the source give for `CCOC(=O)c1cc(C)nc(Sc2ccc(C)cc2)c1C#N` here?
**A.** > 40 µM (active)

**Q.** For `COc1ccc(C(C(O)C(=O)c2c[nH]c3ccccc23)N2CCN(c3ccc(OC)cc3)CC2)cc1` (centres undefined), which CC50 [3] is on record?
**A.** > 40 µM (active)

**Q.** For `Oc1ccccc1N1CCN(c2nnnn2-c2ccccc2)CC1`, which AC50 [1] is on record?
**A.** 7.83 µM (active)

**Q.** Which results are given for `Cc1ccc(O)c(C(=O)CC(=O)c2ccccc2Cl)c1`?
**A.** EC50 [4]: > 160 µM (inactive); EC50 [5]: 9.81 µM (active); EC50 [6]: 4.15 µM (active); CC50 [3]: 24.4 µM (active); EC50 [7]: 2.52 µM (active)

**Q.** Which AC50 [1] does the source give for `O=C(NCc1nnc(S)n1-c1ccc(Br)cc1)c1ccc(S(=O)(=O)N2CCCC2)cc1` here?
**A.** 6.96 µM (active)

**Q.** With `O=C(O)CCCCCNc1nc(S)nc2ccccc12` as the molecule, how does the AC50 [1] read?
**A.** 7.38 µM (active)

**Q.** Which results are given for `Nc1c(N(CCC2=CCCCC2)C(=O)c2ccc([N+](=O)[O-])o2)c(=O)[nH]c(=O)n1Cc1ccccc1`?
**A.** EC50 [8]: > 60 µM (not active); CC50 [3]: > 40 µM (active); EC50 [9]: 0.345 µM (active)

**Q.** For `C=C(C)C(=O)OCC(O)COc1ccc(C(C)(C)c2ccc(OCC(O)COC(=O)C(=C)C)cc2)cc1` (centres undefined), which AC50 [10] is on record?
**A.** 15 µM (active)

**Q.** And the CC50 [3]?
**A.** > 40 µM (active)

**Q.** For `O=[N+]([O-])c1c(O)nc(/C=C\c2cccc(Cl)c2)nc1O`, which AC50 [1] is on record?
**A.** 0.737 µM (active)

**Q.** Which EC50 [11] does the source give for `C/C(=N\Nc1nnc2c3ccccc3n(C)c2n1)c1ccc(C)o1` here?
**A.** 71.3 µM (active)

**Q.** What about the EC50 [12] of the same molecule?
**A.** > 120 µM (not active)

**Q.** What about the IC50 [13] of the same molecule?
**A.** > 79 µM (inactive)

**Q.** And the EC50 [14]?
**A.** 17.5 µM (active)

**Q.** With `C[C@@H]1CCCCO[C@@H](CN(C)Cc2ccccc2)[C@@H](C)CN([C@@H](C)CO)C(=O)c2cc(NS(=O)(=O)c3ccc(Cl)cc3)ccc2O1` as the molecule, how does the AC50 [15] read?
**A.** 5.43 µM (active)

**Q.** What about the AC50 [16] of the same molecule?
**A.** 63.2 µM (active)

**Q.** For `O=C(C[C@H]1C[C@@H]2c3cc(NC(=O)Nc4ccc(C(F)(F)F)cc4)ccc3O[C@@H]2[C@@H](CO)O1)NCCc1ccccc1`, which AC50 [15] is on record?
**A.** 2.07 µM (active)

**Q.** And the AC50 [16]?
**A.** 60.1 µM (active)

**Q.** Which AC50 [15] does the source give for `C[C@H](CO)N1C[C@H](C)[C@H](CN(C)C(=O)c2ccccc2)OCCCC[C@H](C)Oc2ccc(NC(=O)Nc3ccc(C(F)(F)F)cc3)cc2C1=O` here?
**A.** 5.26 µM (active)

**Q.** And the AC50 [16]?
**A.** > 70 µM (inactive)

**Q.** Which AC50 [17] does the source give for `COc1cc(CN2CC3(CN(C(=O)CN4CCOCC4)C3)c3c(n(C)c4cc(OC)ccc34)[C@@H]2CO)cc(OC)c1` here?
**A.** 6.16 µM (active)

**Q.** With `O=C(c1ccc(F)cc1)N1CC(=O)N2[C@H](CO)[C@@H](c3ccc(/C=C/c4ccccc4)cc3)[C@@H]2C1` as the molecule, how does the AC50 [17] read?
**A.** 3.9 µM (active)

**Q.** For `C[C@H](CO)N1C[C@H](C)[C@H](CN(C)C(=O)Nc2ccc(F)cc2)Oc2cc(/C=C/c3ccccc3)ccc2S1(=O)=O`, which AC50 [17] is on record?
**A.** 5.46 µM (active)

**Q.** With `O=C(C1CC1)N1CC(=O)N2[C@H](CO)[C@@H](c3ccc(C#CCc4ccccc4)cc3)[C@@H]2C1` as the molecule, how does the AC50 [17] read?
**A.** 5.44 µM (active)

**Q.** With `COc1ccc2c3c(n(C)c2c1)[C@H](CO)N(C(=O)Nc1ccc(F)cc1)CC31CCN(C(=O)c2cccnc2)CC1` as the molecule, how does the AC50 [17] read?
**A.** 4.52 µM (active)
